Measured values published in article PMC12057359, “Inhibitory effect of copper chelators on the budding in Candida albicans” (Antimicrobial Agents and Chemotherapy, 2025).
Like-named read-outs stand apart in the source and are kept apart here. Numbered stars: 1 amine (or outer) side, 2 acyl side, 3 side chain; on linkers, the order of the positions; unused ones are H or OH. Bridge positions count the residues as written; N and C are the ends. Square brackets hold non-standard residues; d marks the D form. Peptide text beside a SMILES is read from it. * marks the point of attachment. hTyr(3S-OH,4S-OH,3'-OSO3H) = N[C@H](C(=O)O)[C@H](O)[C@@H](O)c1ccc(O)c(OS(=O)(=O)O)c1; Orn(4R-OH,5R-OH) = O=C([C@H](C[C@@H](O)[C@@H](O)N[*:3])N[*:1])[*:2]; Pro(3S-OH,4S-Me) = C[C@H]1CN[C@H](C(=O)O)[C@H]1O; X1 = CCCCCOc1ccc(-c2cc(-c3ccc(C(=O)*)cc3)no2)cc1; Gln(3R-OH) = NC(=O)C[C@@H](O)[C@H](N)C(=O)O; Hyp = O=C(O)[C@@H]1C[C@@H](O)CN1

How the values were obtained:
[1] = iHOPE in vitro cytotoxicity assessment (Cell Count Reagent SF); type: cell-based, human; conditions: human
Procedure: The method for in vitro cytotoxicity assessment using Cell Count Reagent SF (Nacalai Tesque) has been described previously ([15]). […] Test compounds were added to the culture medium, and then the plates were incubated at 28°C for 24 h.

[2] = tested on: C. albicans JCM1542; assay: iHOPE antimicrobial microdilution assay (turbidity OD600); type: cell-based, Candida albicans
[3] = tested on: E. coli HO-141; assay: iHOPE antimicrobial microdilution assay; type: cell-based, Escherichia coli; conditions: Escherichia coli
[4] = tested on: P. oryzae Kita-1; assay: microbe, parasite or virus in culture; type: cell-based, Pyricularia oryzae; conditions: Pyricularia oryzae, KITA1, read-out: IC50 against P. oryzae Kita-1
[5] = tested on: A. fumigatus Af293; assay: iHOPE antimicrobial microdilution assay; type: cell-based, Aspergillus fumigatus; conditions: Aspergillus fumigatus
[6] = tested on: C. albicans JCM1542; type: cell-based, Candida albicans
[7] = tested on: S. aureus 209P; assay: iHOPE antimicrobial microdilution assay; type: cell-based, Staphylococcus aureus; conditions: Staphylococcus aureus, 209P, read-out: IC50 against S. aureus 209P
[8] = tested on: C. auris Ci6684; assay: iHOPE antimicrobial microdilution assay (turbidity OD600); type: cell-based, Candida auris; conditions: Candidozyma auris, read-out: IC50 against C. auris Ci6684
[9] = tested on: C. auris VPCI673; assay: as above; type: cell-based, Candida auris; conditions: Candidozyma auris, read-out: IC50 against C. auris VPCI673
[10] = tested on: C. glabrata JCM3761; assay: as above; type: cell-based, Candida glabrata; conditions: Nakaseomyces glabratus, read-out: IC50 against C. glabrata JCM3761
[11] = tested on: C. tropicalis JCM1541; assay: as above; type: cell-based; conditions: Candida tropicalis, read-out: IC50 against C. tropicalis JCM1541
[12] = SD in parentheses, n = 3, read-out: IC50 against HL-60 RCB0041 (cytotoxicity)
[13] = Candida albicans, JCM1542; MOPS-RPMI medium, 28°C, 24 h, OD600; standard deviation in parentheses, n = 3; read-out: IC50 against C. albicans JCM1542
[14] = HO141, SD in parentheses, n = 3, read-out: IC50 against E. coli HO-141
[15] = AF293, SD in parentheses, n = 3, read-out: IC50 against A. fumigatus Af293
[16] = C. albicans JCM1542, MOPS-RPMI medium, 24 h
[17] = CI6684, MOPS-RPMI medium, 24 h, SD in parentheses, n = 3
[18] = VPCI673, MOPS-RPMI medium, 24 h, SD in parentheses, n = 3
[19] = JCM3761, MOPS-RPMI medium, 24 h, SD in parentheses, n = 3
[20] = JCM1541, MOPS-RPMI medium, 24 h, SD in parentheses, n = 3
[21] = Candida albicans, JCM1542, 24 h, read-out: IC50 against C. albicans JCM1542

Question: Which results are given for `[C-]#[N+][C@@H](C)CC(=O)NCc1ccc(N)cc1` [8b]?
Answer: IC50 [1, 12]: > 30 µM; antifungal activity / inhibition of budding against C. albicans (in words) ([2]; C. albicans JCM1542): weak antifungal activity and inhibition of budding; IC50 [2, 13]: 1.8 µM

Question: For oligomycin A, which IC50 ([2]; read-out: IC50 against C. albicans JCM1542; MOPS-RPMI medium, 28°C, 24 h, OD600; standard deviation in parentheses, n = 3) is on record?
Answer: 3.1 µM

Question: With `[C-]#[N+][C@H](C)CC(=O)Nc1ccc(NC(=O)C[C@@H](C)[N+]#[C-])cc1` [13a] as the molecule, how does the IC50 [1, 12] read?
Answer: > 30 µM

Question: And the IC50 [2, 13]?
Answer: 0.41 µM

Question: With `CCCC(=O)NCc1ccc(NC(=O)CCC)cc1` [compound 11] as the molecule, how does the IC50 [1, 12] read?
Answer: > 30 µM

Question: And the “antifungal activity / inhibition of budding against C. albicans (in words)” value ([2]; C. albicans JCM1542)?
Answer: did not mediate any changes in either the survival rate or morphology

Question: What about the IC50 [2, 13] of the same molecule?
Answer: > 30 µM

Question: Which IC50 [3, 14] does the source give for `CC(C)(S)[C@@H](N)C(=O)O` [D-Penicillamine, D-penicillamine] here?
Answer: > 1000 µM

Question: And the IC50 [4]?
Answer: > 1000 µM

Question: What about the IC50 [5, 15] of the same molecule?
Answer: > 1000 µM

Question: And the “morphological change induced in C. albicans” value (shortened to “morphological change induced”) [6, 16]?
Answer: morphological changes similar to those observed with SF2768

Question: What about the IC50 [1] of the same molecule?
Answer: > 1000 µM

Question: What about the IC50 ([7]; SD in parentheses, n = 3) of the same molecule?
Answer: > 1000 µM

Question: And the IC50 [8, 17]?
Answer: > 1000 µM

Question: And the IC50 [9, 18]?
Answer: > 1000 µM

Question: And the IC50 [10, 19]?
Answer: 270 µM

Question: And the IC50 [11, 20]?
Answer: > 1000 µM

Question: With `CCCCCC[C@H]1C(=O)O[C@H](C)[C@H](NC(=O)c2cccc(NC=O)c2O)C(=O)O[C@@H](C)[C@@H]1OC(=O)CC(C)C` [Antimycin A, antimycin A] as the molecule, how does the IC50 [2, 21] read?
Answer: 0.035 µM

Question: Which IC50 [1, 12] does the source give for `[C-]#[N+][C@@H](C)CC(=O)NCCc1ccc(NC(=O)C[C@H](C)[N+]#[C-])cc1` [12b] here?
Answer: > 30 µM

Question: And the IC50 [8, 17]?
Answer: 0.055 µM

Question: What about the IC50 [9, 18] of the same molecule?
Answer: 0.14 µM

Question: What about the IC50 [2, 13] of the same molecule?
Answer: 0.012 µM

Question: What about the IC50 [10, 19] of the same molecule?
Answer: 0.012 µM

Question: And the IC50 [11, 20]?
Answer: 0.012 µM

Question: With `[C-]#[N+][C@@H](C)CC(=O)NCc1ccc(NC(=O)C[C@H](C)[N+]#[C-])cc1` [10b] as the molecule, how does the IC50 [1, 12] read?
Answer: > 30 µM

Question: And the IC50 [2, 13]?
Answer: 0.19 µM

Question: Which IC50 [3, 14] does the source give for `C[C@@H]1[C@H](O)[C@@H](C)/C=C/C=C/C=C/C=C/C=C/C=C/C=C/[C@H](O[C@@H]2O[C@H](C)[C@@H](O)[C@H](N)[C@@H]2O)C[C@@H]2O[C@](O)(C[C@@H](O)C[C@@H](O)[C@H](O)CC[C@@H](O)C[C@@H](O)CC(=O)O[C@H]1C)C[C@H](O)[C@H]2C(=O)O` [Amphotericin B, amphotericin B] here?
Answer: > 30 µM

Question: And the IC50 [4]?
Answer: 0.16 µM

Question: What about the IC50 [5, 15] of the same molecule?
Answer: 0.21 µM

Question: And the “morphological change induced” value [6]?
Answer: yeast-rich morphology

Question: And the IC50 [1]?
Answer: 17 µM

Question: What about the IC50 ([7]; SD in parentheses, n = 3) of the same molecule?
Answer: > 30 µM

Question: And the IC50 [8, 17]?
Answer: 0.41 µM

Question: And the IC50 [9, 18]?
Answer: 0.44 µM

Question: What about the IC50 [2, 13] of the same molecule?
Answer: 0.039 µM

Question: What about the IC50 [10, 19] of the same molecule?
Answer: 0.063 µM

Question: And the IC50 [11, 20]?
Answer: 0.046 µM

Question: With `OO` [H2O2] as the molecule, how does the IC50 ([2]; MOPS-RPMI medium, 28°C, 24 h, OD600; standard deviation in parentheses, n = 3; read-out: IC50 against C. albicans JCM1542) read?
Answer: 550 µM

Question: For `COc1cc(-c2ccccn2)nc(/C=N/O)c1SC` [collismycin], which “morphological change induced” value [6, 16] is on record?
Answer: elongated, but not as long as SF2768, and tortuous hyphae

Question: For `[C-]#[N+][C@@H](C)CC(=O)N[C@H]1CC[C@H](NC(=O)C[C@H](C)[N+]#[C-])CC1` [16b], which IC50 [1, 12] is on record?
Answer: > 30 µM

Question: What about the IC50 [2, 13] of the same molecule?
Answer: 0.61 µM

Question: Which results are given for `[C-]#[N+][C@H](C)CC(=O)NCc1ccc(NC(=O)C[C@@H](C)[N+]#[C-])cc1` [10a]?
Answer: IC50 [1, 12]: > 30 µM; IC50 [2, 13]: 0.38 µM

Question: Which IC50 ([3]; HO141, read-out: IC50 against E. coli HO-141) does the source give for `CCCCCOc1ccc(-c2cc(-c3ccc(C(=O)N[C@H]4C[C@@H](O)[C@@H](O)NC(=O)[C@@H]5[C@@H](O)[C@@H](C)CN5C(=O)[C@H]([C@H](O)CC(N)=O)NC(=O)[C@H]([C@H](O)[C@@H](O)c5ccc(O)c(OS(=O)(=O)O)c5)NC(=O)[C@@H]5C[C@@H](O)CN5C(=O)[C@H]([C@@H](C)O)NC4=O)cc3)no2)cc1` [Micafungin, micafungin] (X1-[Orn(4R-OH,5R-OH)]T[Hyp][hTyr(3S-OH,4S-OH,3'-OSO3H)][Gln(3R-OH)][Pro(3S-OH,4S-Me)]; lactam 1-C) here?
Answer: > 30 µM

Question: And the IC50 [4]?
Answer: > 30 µM

Question: What about the IC50 ([5]; AF293, read-out: IC50 against A. fumigatus Af293) of the same molecule?
Answer: 0.004 µM

Question: What about the “morphological change induced” value [6, 16] of the same molecule?
Answer: yeast-rich morphology

Question: And the IC50 [1, 12]?
Answer: > 30 µM

Question: And the IC50 [7]?
Answer: > 30 µM

Question: What about the IC50 ([8]; CI6684, 24 h) of the same molecule?
Answer: 0.029 µM

Question: What about the IC50 ([9]; VPCI673, 24 h) of the same molecule?
Answer: 0.027 µM

Question: And the IC50 [2, 21]?
Answer: 0.0033 µM

Question: What about the IC50 ([10]; JCM3761, 24 h) of the same molecule?
Answer: 0.0049 µM

Question: And the IC50 ([11]; JCM1541, 24 h)?
Answer: 0.0054 µM

Question: With `CC(C)=CCC/C(C)=C/CC/C(C)=C/CO` [farnesol] as the molecule, how does the “growth form of C. albicans under hyphal growth conditions” value ([6]; 3 µM, MOPS-RPMI) read?
Answer: the cells grew as yeast form
